Consider 15 compounds from patent US20240208992A1, “MACROCYCLES AS CFTR MODULATORS” (Idorsia Pharmaceuticals Ltd, priority 2021, published 2024).

Each structure is given as a SMILES string.

In the assay the target is human F508del-CFTR (Homo sapiens, UniProt P13569, DEL508-508). The assay can be described thus: F508del-CFTR cell surface expression (corrector activity), DiscoveRx ß-galactosidase complementation chemiluminescence assay in recombinant U2OS cell line.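 On all read-outs here: U2OS cells co-expressing ProLink-tagged F508del-CFTR and a membrane-anchored enzyme acceptor, where more surface CFTR restores β-galactosidase activity measured by chemiluminescence.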 The conditions noted are these: for EC50: EC50, F508del-CFTR cell surface expression, U2OS cells, 16h compound incubation, geomean values; for Emax: U2OS, in relation to Emax of corrector lumacaftor (=100%), arithmetic mean values.

As a reminder, the EC50 is the concentration that produces a half-maximal response. For orientation: Emax means the greatest response seen or fitted, relative to the assay's reference.

Chain of human F508del-CFTR (P13569 with tags, fused parts or gaps DEL508-508): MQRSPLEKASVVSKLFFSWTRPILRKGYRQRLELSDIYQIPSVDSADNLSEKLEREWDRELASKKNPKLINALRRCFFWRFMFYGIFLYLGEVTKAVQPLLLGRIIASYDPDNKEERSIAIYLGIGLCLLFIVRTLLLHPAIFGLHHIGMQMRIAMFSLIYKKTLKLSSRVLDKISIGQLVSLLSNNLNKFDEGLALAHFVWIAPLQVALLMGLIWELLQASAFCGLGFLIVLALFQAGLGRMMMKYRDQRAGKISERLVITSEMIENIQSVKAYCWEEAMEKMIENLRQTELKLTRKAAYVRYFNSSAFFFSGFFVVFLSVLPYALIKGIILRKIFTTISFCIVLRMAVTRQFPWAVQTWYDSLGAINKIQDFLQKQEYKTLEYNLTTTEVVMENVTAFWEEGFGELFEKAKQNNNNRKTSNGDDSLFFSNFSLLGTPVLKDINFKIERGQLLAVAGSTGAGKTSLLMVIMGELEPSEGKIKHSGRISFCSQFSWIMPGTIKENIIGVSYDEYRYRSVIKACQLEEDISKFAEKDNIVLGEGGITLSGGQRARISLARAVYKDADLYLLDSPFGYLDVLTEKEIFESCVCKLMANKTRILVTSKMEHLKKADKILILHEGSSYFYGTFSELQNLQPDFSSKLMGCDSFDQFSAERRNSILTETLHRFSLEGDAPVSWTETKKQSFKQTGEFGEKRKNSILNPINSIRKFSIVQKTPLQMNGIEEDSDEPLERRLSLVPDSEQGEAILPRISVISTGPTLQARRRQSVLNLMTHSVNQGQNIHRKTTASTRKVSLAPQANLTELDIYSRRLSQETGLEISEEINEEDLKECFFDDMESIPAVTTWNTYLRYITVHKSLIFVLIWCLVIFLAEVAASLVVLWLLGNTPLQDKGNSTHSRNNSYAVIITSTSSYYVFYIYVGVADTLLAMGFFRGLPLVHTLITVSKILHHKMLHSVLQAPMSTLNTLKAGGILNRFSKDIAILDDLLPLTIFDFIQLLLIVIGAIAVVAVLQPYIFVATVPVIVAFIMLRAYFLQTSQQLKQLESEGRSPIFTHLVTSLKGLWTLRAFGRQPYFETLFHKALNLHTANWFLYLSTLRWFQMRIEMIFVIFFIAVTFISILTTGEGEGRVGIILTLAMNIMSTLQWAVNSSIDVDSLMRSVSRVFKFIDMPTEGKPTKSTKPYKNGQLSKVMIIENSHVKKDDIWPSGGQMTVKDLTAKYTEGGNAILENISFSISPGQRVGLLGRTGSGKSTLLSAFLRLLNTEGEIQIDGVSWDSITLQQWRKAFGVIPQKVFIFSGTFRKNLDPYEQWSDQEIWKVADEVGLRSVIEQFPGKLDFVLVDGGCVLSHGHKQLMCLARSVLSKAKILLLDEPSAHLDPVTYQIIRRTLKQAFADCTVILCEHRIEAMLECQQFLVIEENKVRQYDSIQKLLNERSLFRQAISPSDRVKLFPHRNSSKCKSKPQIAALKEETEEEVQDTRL

As to `Cc1nc2ccc3c(c2o1)C(=O)N[C@H](C(=O)NCCc1cc(-c2ccccc2)no1)CC(=O)N(C)[C@@H](CC(C)C)C(=O)N(C)C1(CC1)C(=O)N[C@H](Cc1ccccc1)CO3` [Example 761, (8′R,14'S,18'S)-8′-Benzyl-14′-isobutyl-2′,12′,15′-trimethyl-10′,13′,16′,20′-tetraoxo-N-(2-(3-phenylisoxazol-5-yl)ethyl)-7′,8′,9′,10′,13′,14′,15′,16′,17′,18′,19′,20′-dodecahydro-12′H-spiro[cyclopropane-1,11′-oxazolo[4′,5′:5,6]benzo[1,2-p][1]oxa[4,7,10,14]tetraazacycloheptadecine]-18′-carboxamide], the EC50 was found to be 676 nM and the Emax is 202%.

With `Cc1nc2ccc3c(c2o1)C(=O)N[C@H](C(=O)NCCc1cc(C(C)C)no1)CC(=O)N(C)[C@@H](CC(C)C)C(=O)N(C)C1(CC1)C(=O)N[C@H](Cc1ccccc1)CO3` [Example 762, (8′R,14'S,18'S)-8′-Benzyl-14′-isobutyl-N-(2-(3-isopropylisoxazol-5-yl)ethyl)-2′,12′,15′-trimethyl-10′,13′,16′,20′-tetraoxo-7′,8′,9′,10′,13′,14′,15′,16′,17′,18′,19′,20′-dodecahydro-12′H-spiro[cyclopropane-1,11′-oxazolo[4′,5′:5,6]benzo[1,2-p][1]oxa[4,7,10,14]tetraazacycloheptadecine]-18′-carboxamide], the EC50 is 929 nM and the Emax came to 333%.

`CC(C)C[C@H]1C(=O)N(C)C2(CC2)C(=O)N[C@H](Cc2ccccc2)COc2cnc3ccccc3c2C(=O)N[C@H](C(=O)NCCc2nc(Cc3ccccc3)no2)CC(=O)N1C` [Example 763, (3'S,7'S,13′R)-13′-Benzyl-N-(2-(3-benzyl-1,2,4-oxadiazol-5-yl)ethyl)-7′-isobutyl-6′,9′-dimethyl-1′,5′,8′,11′-tetraoxo-2′,3′,4′,5′,6′,7′,8′,9′,11′,12′,13′,14′-dodecahydro-1′H-spiro[cyclopropane-1,10′-[1]oxa[4,7,10,14]tetraazacycloheptadecino[17,16-c]quinoline]-3′-carboxamide]: the EC50 came to 264 nM and the Emax was determined as 181%.

For the compound `CC(C)C[C@H]1C(=O)N(C)C2(CC2)C(=O)N[C@H](Cc2ccccc2)COc2cnc3ccccc3c2C(=O)N[C@H](C(=O)NCCc2nc(CC3CC3)no2)CC(=O)N1C` [Example 764, (3'S,7'S,13′R)-13′-Benzyl-N-(2-(3-(cyclopropylmethyl)-1,2,4-oxadiazol-5-yl)ethyl)-7′-isobutyl-6′,9′-dimethyl-1′,5′,8′,11′-tetraoxo-2′,3′,4′,5′,6′,7′,8′,9′,11′,12′,13′,14′-dodecahydro-1′H-spiro[cyclopropane-1,10′-[1]oxa[4,7,10,14]tetraazacycloheptadecino[17,16-c]quinoline]-3′-carboxamide], the EC50 was found to be 374 nM and the Emax was determined as 315%.

`COc1noc(CCNC(=O)[C@@H]2CC(=O)N(C)[C@@H](CC(C)C)C(=O)N(C)[C@H](C)C(=O)N[C@H](Cc3ccccc3)COc3ccnc(OC)c3C(=O)N2)c1F` [Example 765, (3R,6R,9S,13S)-3-benzyl-N-(2-(4-fluoro-3-methoxyisoxazol-5-yl)ethyl)-9-isobutyl-16-methoxy-6,7,10-trimethyl-5,8,11,15-tetraoxo-2,3,4,5,6,7,8,9,10,11,12,13,14,15-tetradecahydropyrido[3,4-p][1]oxa[4,7,10,14]tetraazacycloheptadecine-13-carboxamide]: the EC50 is 300 nM and the Emax worked out at 323%.

`COc1noc(CCNC(=O)[C@@H]2CC(=O)N(C)[C@@H](CC(C)C)C(=O)N3CCCC[C@@H]3C(=O)N[C@H](Cc3ccccc3)COc3cc(C)nc(OC)c3C(=O)N2)c1F` [Example 766, (7S,11S,17aR,20R)-20-benzyl-N-(2-(4-fluoro-3-methoxyisoxazol-5-yl)ethyl)-11-isobutyl-4-methoxy-2,10-dimethyl-5,9,12,18-tetraoxo-5,6,7,8,9,10,11,12,15,16,17,17a,18,19,20,21-hexadecahydro-14H-dipyrido[2,1-f:3′,4′-p][1]oxa[4,7,10,14]tetraazacycloheptadecine-7-carboxamide]: the EC50 is 154 nM and the Emax was determined as 393%.

As for `COc1noc(CCNC(=O)[C@@H]2CC(=O)N(C)[C@@H](CC(C)C)C(=O)N3CCCC[C@@H]3C(=O)N[C@H](Cc3ccccc3)COc3ccnc(OC)c3C(=O)N2)c1F` [Example 767, (7S,11S,17aR,20R)-20-benzyl-N-(2-(4-fluoro-3-methoxyisoxazol-5-yl)ethyl)-11-isobutyl-4-methoxy-10-methyl-5,9,12,18-tetraoxo-5,6,7,8,9,10,11,12,15,16,17,17a,18,19,20,21-hexadecahydro-14H-dipyrido[2,1-f:3′,4′-p][1]oxa[4,7,10,14]tetraazacycloheptadecine-7-carboxamide], the EC50 is 212 nM and the maximum response (Emax) was 390%.

On to `COc1cccc(CCNC(=O)[C@@H]2CC(=O)N(C)[C@@H](CC(C)C)C(=O)N(C)[C@H](C)C(=O)N[C@H](Cc3ccccc3)COc3ccnc(OC)c3C(=O)N2)c1` [Example 768, (3R,6R,9S,13S)-3-benzyl-9-isobutyl-16-methoxy-N-(3-methoxyphenethyl)-6,7,10-trimethyl-5,8,11,15-tetraoxo-2,3,4,5,6,7,8,9,10,11,12,13,14,15-tetradecahydropyrido[3,4-p][1]oxa[4,7,10,14]tetraazacycloheptadecine-13-carboxamide], for which the EC50 turned out to be 497 nM and the Emax stood at 292%.

Regarding `COc1cc(CCNC(=O)[C@@H]2CC(=O)N(C)[C@@H](CC(C)C)C(=O)N3CCCC[C@@H]3C(=O)N[C@H](Cc3ccccc3)COc3ccc4ncc(F)cc4c3C(=O)N2)on1` [Example 769, (9S,13S,19aR,22R)-22-benzyl-5-fluoro-13-isobutyl-N-(2-(3-methoxyisoxazol-5-yl)ethyl)-12-methyl-7,11,14,20-tetraoxo-7,8,9,10,11,12,13,14,17,18,19,19a,20,21,22,23-hexadecahydro-16H-pyrido[2′,1′:6,7][1]oxa[4,7,10,14]tetraazacycloheptadecino[16,17-f]quinoline-9-carboxamide], the concentration for a half-maximal effect (EC50) stood at 140 nM and the Emax is 346%.

For the compound `COc1cc(CCNC(=O)[C@@H]2CC(=O)N(C)[C@@H](CC(C)C)C(=O)N3CCCC[C@H]3C(=O)N[C@H](Cc3ccccc3)COc3ccc4ncc(F)cc4c3C(=O)N2)on1` [Example 770, (9S,13S,19aS,22R)-22-benzyl-5-fluoro-13-isobutyl-N-(2-(3-methoxyisoxazol-5-yl)ethyl)-12-methyl-7,11,14,20-tetraoxo-7,8,9,10,11,12,13,14,17,18,19,19a,20,21,22,23-hexadecahydro-16H-pyrido[2′,1′:6,7][1]oxa[4,7,10,14]tetraazacycloheptadecino[16,17-f]quinoline-9-carboxamide], the EC50 is 1000 nM and the maximum response (Emax) was determined as 228%.

As to `COc1cc(CCNC(=O)[C@@H]2CC(=O)N(C)[C@@H](CC(C)C)C(=O)N(C)[C@H](C)C(=O)N[C@H](Cc3ccccc3)COc3ccnc(OC)c3C(=O)N2)on1` [Example 771, (3R,6R,9S,13S)-3-benzyl-9-isobutyl-16-methoxy-N-(2-(3-methoxyisoxazol-5-yl)ethyl)-6,7,10-trimethyl-5,8,11,15-tetraoxo-2,3,4,5,6,7,8,9,10,11,12,13,14,15-tetradecahydropyrido[3,4-p][1]oxa[4,7,10,14]tetraazacycloheptadecine-13-carboxamide], the EC50 is 597 nM and the Emax came out at 299%.

Regarding `COc1cc(CCNC(=O)[C@@H]2CC(=O)N(C)[C@@H](CC(C)C)C(=O)N(C)[C@H](C)C(=O)N[C@H](Cc3ccccc3)COc3cc(C)nc(OC)c3C(=O)N2)on1` [Example 772, (3R,6R,9S,13S)-3-benzyl-9-isobutyl-16-methoxy-N-(2-(3-methoxyisoxazol-5-yl)ethyl)-6,7,10,18-tetramethyl-5,8,11,15-tetraoxo-2,3,4,5,6,7,8,9,10,11,12,13,14,15-tetradecahydropyrido[3,4-p][1]oxa[4,7,10,14]tetraazacycloheptadecine-13-carboxamide], the EC50 came out at 514 nM and the Emax worked out at 343%.

As for `CC[C@@H]1C(=O)N[C@H](Cc2ccccc2)COc2cc(C)nc(OC)c2C(=O)N[C@H](C(=O)NCCc2cc(C)no2)CC(=O)N(C)[C@@H](CC(C)C)C(=O)N1C` [Example 773, (3R,6R,9S,13S)-3-benzyl-6-ethyl-9-isobutyl-16-methoxy-7,10,18-trimethyl-N-(2-(3-methylisoxazol-5-yl)ethyl)-5,8,11,15-tetraoxo-2,3,4,5,6,7,8,9,10,11,12,13,14,15-tetradecahydropyrido[3,4-p][1]oxa[4,7,10,14]tetraazacycloheptadecine-13-carboxamide], the half-maximal effective concentration (EC50) was 841 nM and the Emax was 339%.

`CC[C@@H]1C(=O)N[C@H](Cc2ccccc2)COc2cc(C)nc(OC)c2C(=O)N[C@H](C(=O)NCCc2cccc(OC)c2)CC(=O)N(C)[C@@H](CC(C)C)C(=O)N1C` [Example 774, (3R,6R,9S,13S)-3-benzyl-6-ethyl-9-isobutyl-16-methoxy-N-(3-methoxyphenethyl)-7,10,18-trimethyl-5,8,11,15-tetraoxo-2,3,4,5,6,7,8,9,10,11,12,13,14,15-tetradecahydropyrido[3,4-p][1]oxa[4,7,10,14]tetraazacycloheptadecine-13-carboxamide]: the EC50 is 751 nM and the Emax was found to be 345%.

For the compound `COc1nc(C)cc2c1C(=O)N[C@H](C(=O)NCCc1cc(C)no1)CC(=O)N(C)[C@@H](CC(C)C)C(=O)N(C)[C@H](CC(F)F)C(=O)N[C@H](Cc1ccccc1)CO2` [Example 775, (3R,6R,9S,13S)-3-benzyl-6-(2,2-difluoroethyl)-9-isobutyl-16-methoxy-7,10,18-trimethyl-N-(2-(3-methylisoxazol-5-yl)ethyl)-5,8,11,15-tetraoxo-2,3,4,5,6,7,8,9,10,11,12,13,14,15-tetradecahydropyrido[3,4-p][1]oxa[4,7,10,14]tetraazacycloheptadecine-13-carboxamide], the 50% effective concentration (EC50) amounted to 875 nM and the Emax is 359%.
